The source of these data is US8383094B2, “Hepatitis C virus inhibitors” (Bristol-Myers Squibb Company, priority 2008, dated 2013).

The subject of one assay is HCV 1b genotype. Description: HCV Replicon assay (HCV-neo replicon cells, wild-type). Format: cell-based. Particulars: HCV 1b genotype replicon; range class A-D; read-out: 1b EC50 (in μM or range). Here is the method: An HCV Replicon assay was utilized in the present disclosure, and was prepared, conducted and validated as described in commonly owned PCT/US2006/022197 and in O′Boyle et. al. Antimicrob Agents Chemother, 2005 April; 49(4):1346-53. Assay methods incorporating luciferase reporters have also been used as described (Apath.com).
HCV-neo replicon cells and replicon cells containing mutations in the NS5A region were used to test the currently described family of compounds. The compounds were determined to have more than 10-fold less inhibitory activity on cells containing mutations than wild-type cells. Thus, the compounds of the present disclosure can be effective in inhibiting the function of the HCV NS5A protein and are understood to be as effective in combinations as previously described in application PCT/US2006/022197 and commonly owned WO/04014852. Further, the compounds of the present disclosure can be effective against the HCV 1b genotype. It should also be understood that the compounds of the present disclosure can inhibit multiple genotypes of HCV. […] In one embodiment, compounds of the present disclosure are inhibitory versus 1a, 1b, 2a, 2b, 3a, 4a, and 5a genotypes.
A general note: Replicon systems follow genome replication, usually without infectious particles.
In the case of `O=C(Nc1ccc(C#Cc2ccc(NC(=O)[C@@H]3CCCN3C(=O)C(c3ccccc3)N3CC[C@@H](O)C3)cc2)cc1)[C@@H]1CCCN1C(=O)C(c1ccccc1)N1CC[C@@H](O)C1` (stereo partly drawn) [VN53, (2S,2′S)-N,N′-(1,2-ethynediyldi-4,1-phenylene)bis(1-(((3R)-3-hydroxy-1-pyrrolidinyl)(phenyl)acetyl)-2-pyrrolidinecarboxamide)], the EC50 (commonly the concentration that produces a half-maximal response) lay in the range of 0.00457 to 0.099 µM.

Turning to `CCc1scnc1C(=O)N1CCC[C@H]1C(=O)Nc1ccc(C#Cc2ccc(NC(=O)[C@@H]3CCCN3C(=O)c3ncsc3CC)cc2)cc1` [Example D36.2, (2S,2′S)-N,N′-(4,4′-(ethyne-1,2-diyl)bis(4,1-phenylene))bis(1-(5-ethylthiazole-4-carbonyl)pyrrolidine-2-carboxamide)], the EC50 lay in the range of 0.00457 to 0.099 µM.

Still in this assay, the particulars now being: HCV 1b genotype replicon; read-out: 1b EC50 (in μM or range).
With `CN1C[C@@H]2C[C@H]1CN2C(C(=O)N1CCC[C@H]1C(=O)Nc1ccc(C#Cc2ccc(NC(=O)[C@@H]3CCCN3C(=O)C(c3ccccc3)N3C[C@@H]4C[C@H]3CN4C)cc2)cc1)c1ccccc1` (stereo partly drawn) [VN19, (2S,2′S)-N,N′-(1,2-ethynediyldi-4,1-phenylene)bis(1-(((1S,4S)-5-methyl-2,5-diazabicyclo[2.2.1]hept-2-yl)(phenyl)acetyl)-2-pyrrolidinecarboxamide)], the EC50 is 0.0052 µM.

The same assay, now with this note: Hepatitis C virus, HCV 1b genotype replicon; range class A-D; read-out: 1b EC50 (in μM or range).
`CC(C)(C)OC(=O)Nc1ccc(C#Cc2ccc(NC(=O)[C@@H]3CCCN3C(=O)[C@H](O)c3ccccc3)cc2)cc1` [Example D60.1, tert-Butyl 4-((4-((S)-1-((R)-2-hydroxy-2-phenylacetyl)pyrrolidine-2-carboxamido)phenyl)ethynyl)phenylcarbamate]: the EC50 was 0.1 to 0.999 µM.

Take `CC(C)(C)O[C@@H]1C[C@@H](C(=O)Nc2ccc(C#Cc3ccc(NC(=O)[C@@H]4C[C@@H](OC(C)(C)C)CN4C(=O)OCc4ccccc4)cc3)cc2)N(C(=O)OCc2ccccc2)C1` [Example D8, Dibenzyl (2S,4R,2′S,4′R)-2,2′-(1,2-ethynediylbis(4,1-phenylenecarbamoyl))bis(4-tert-butoxy-1-pyrrolidinecarboxylate)]: the EC50 lay in the range of 1 to 10 µM.

Take `CC(C)(C(=O)N1CCC[C@H]1C(=O)Nc1ccc(C#Cc2ccc(NC(=O)[C@@H]3CCCN3C(=O)C(C)(C)c3ccccc3)cc2)cc1)c1ccccc1` [VN3, (2S,2′S)-N,N′-(1,2-ethynediyldi-4,1-phenylene)bis(1-(2-methyl-2-phenylpropanoyl)-2-pyrrolidinecarboxamide)]: the concentration for a half-maximal effect (EC50) fell in the range of 0.00457 to 0.099 µM.

As to `O=C(Nc1ccc(C#Cc2ccc(NC(=O)C3CC(=O)N(Cc4ccc(Cl)cc4)C3)cc2)cc1)C1CC(=O)N(Cc2ccc(Cl)cc2)C1` (centres unmarked) [Example D14, N,N′-(1,2-ethynediyldi-4,1-phenylene)bis(1-(4-chlorobenzyl)-5-oxo-3-pyrrolidinecarboxamide)], the EC50 fell in the range of 1 to 10 µM.

For `CC(=O)N[C@@H](C)C(=O)N1CCC[C@H]1C(=O)Nc1ccc(C#Cc2ccc(NC(=O)[C@@H]3CCCN3C(=O)[C@H](C)NC(C)=O)cc2)cc1` [VN15, (2S,2′S)-N,N′-(1,2-ethynediyldi-4,1-phenylene)bis(1-((2S)-2-acetamidopropanoyl)-2-pyrrolidinecarboxamide)], the EC50 was in the range of 0.1 to 0.999 µM.

Turning to `O=C(Nc1ccc(C#Cc2ccc(NC(=O)C3CC3)cc2)cc1)C1CC1` [Example D3, N,N′-(4,4′-(Ethyne-1,2-diyl)bis(4,1-phenylene))dicyclopropanecarboxamide], the EC50 fell in the range of 0.00457 to 0.099 µM.

For `C[C@@H](C(=O)N1CCC[C@H]1C(=O)Nc1ccc(C#Cc2ccc(NC(=O)[C@@H]3CCCN3C(=O)[C@H](C)c3ccccc3)cn2)nc1)c1ccccc1` [Example D54, (2S,2′S)-N,N′-(1,2-ethynediyldi-2,5-pyridinediyl)bis(1-((2R)-2-phenylpropanoyl)-2-pyrrolidinecarboxamide)], the EC50 is under 0.00457 µM.

Consider `O=C(Nc1ccc(C#Cc2ccc(NC(=O)[C@@H]3CCCN3C(=O)Cc3ccccc3)cn2)nc1)[C@@H]1CCCN1C(=O)Cc1ccccc1` [Example D52, (2S,2′S)-N,N′-(6,6′-(ethyne-1,2-diyl)bis(pyridine-6,3-diyl))bis(1-(2-phenylacetyl)pyrrolidine-2-carboxamide)], for which the EC50 was 0.00457 to 0.099 µM.
